29 compounds from patent US12643910B2, “Substituted pyrazolo[3,4-b]pyridines as ectonucleotide pyrophosphatase/phosphodiesterase 1 (ENPP1) modulators” (SANFORD BURNHAM PREBYS MEDICAL DISCOVERY INSTITUTE, priority 2019, dated 2026) can be followed below.

Molecules are shown by their SMILES. Bounds are passed on as bounds.

The experiment has as its target T1, human ENPP1 (Homo sapiens, UniProt P22413).
T1 construct: made in house
T1 sequence (P22413 1-925): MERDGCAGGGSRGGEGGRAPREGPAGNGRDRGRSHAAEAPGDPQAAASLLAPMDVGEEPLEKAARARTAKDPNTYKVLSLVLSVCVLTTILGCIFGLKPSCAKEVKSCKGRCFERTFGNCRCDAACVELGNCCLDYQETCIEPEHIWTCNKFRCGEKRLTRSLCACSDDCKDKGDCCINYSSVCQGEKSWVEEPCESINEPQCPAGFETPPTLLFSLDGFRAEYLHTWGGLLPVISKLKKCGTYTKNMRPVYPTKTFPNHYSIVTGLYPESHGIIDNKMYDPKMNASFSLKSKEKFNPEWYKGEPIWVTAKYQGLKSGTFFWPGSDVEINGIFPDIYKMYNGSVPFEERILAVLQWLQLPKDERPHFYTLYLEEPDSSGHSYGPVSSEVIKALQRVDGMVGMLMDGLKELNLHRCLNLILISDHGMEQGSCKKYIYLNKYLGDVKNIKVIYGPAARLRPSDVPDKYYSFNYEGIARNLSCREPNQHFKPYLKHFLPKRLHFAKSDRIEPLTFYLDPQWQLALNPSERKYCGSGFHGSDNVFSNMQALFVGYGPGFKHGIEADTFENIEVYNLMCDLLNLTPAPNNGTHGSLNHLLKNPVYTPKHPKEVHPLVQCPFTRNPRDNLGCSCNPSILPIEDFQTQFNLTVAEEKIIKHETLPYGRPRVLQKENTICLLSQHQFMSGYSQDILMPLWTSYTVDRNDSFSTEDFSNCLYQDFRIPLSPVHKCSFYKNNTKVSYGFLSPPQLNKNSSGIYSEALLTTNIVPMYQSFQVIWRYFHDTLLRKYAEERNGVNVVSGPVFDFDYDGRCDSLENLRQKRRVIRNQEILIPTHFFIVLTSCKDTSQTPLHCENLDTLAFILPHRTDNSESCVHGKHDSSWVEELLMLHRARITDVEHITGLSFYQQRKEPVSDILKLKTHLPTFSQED
The experiment can be described thus: ENPP1 assay with ATP substrate (Transcreener AMP2/GMP2 TR-FRET). It is filed as biochemical. The conditions noted are these: 1 hour at room temperature. From the text:
Example B1: ENPP1 Assay with ATP Substrate
Ectonucleotide pyrophosphatase/phosphodiesterase 1 (ENPP1) hydrolyzes ATP, breaking it down into 5′-AMP and pyrophosphate. The 5′-AMP formed from the reaction is detected by Transcreener® AMP2/GMP2 TR-FRET Assay (Bellbrook), containing AMP-tracer (HiLyte 647) and anti-AMP Terbium (Tb) donor. 5′-AMP generated in the reaction competes with AMP-tracer for binding with Anti-AMP Tb donor, and decreases TR-FRET signal.
Different concentrations of ENPP1 inhibitors are added to dry assay plate, followed by 2 μl 300 nM ATP. The reaction is initiated with the addition of 2 μl 8.5 μM human ENPP1 (generated by SBP Protein group). The assay reaction mixture contains a buffer of 50 mM Tris, pH 7.5, 1 mM TCEP, 2 mM MgCl2, 0.005% Tween 20, and 1% DMSO. The reaction is stopped after 1 hour at room temperature by adding 2 μL of 2 nM AMP-tracer and 2 μl of 2 nM Anti-AMP Tb donor in the 50 mM Tris, pH 7.5, buffer containing 20 mM EDTA and 0.1% Prionex. After 2 hour additional incubation at room temperature, the generated signal is measured using BMG Lab PHERASTAR instrument. 100% activity control samples (containing enzyme, substrate, buffer: MAX) and no enzyme control samples (containing substrate and buffer: MIN) are utilized to calculate percent inhibition (%) for each compound concentration well (COMPOUND) as follows.
The IC50 values are determined by fitting the inhibition curves with 2-parameter variable slope model in Graphpad Prism software using percent inhibition vs compound concentration data: […]
A general note: Time-resolved FRET reads energy transfer from a long-lived donor to a nearby acceptor.
What is called IC50 is the point on the concentration scale where inhibition reaches its midpoint. Turning to `c1ccc(-c2csc3nc(-c4ccccn4)nc(NCc4ccccn4)c23)cc1` [Example 1.2, (5-Phenyl-2-pyridin-2-yl-thieno[2,3-d]pyrimidin-4-yl)-pyridin-2-ylmethyl-amine], the IC50 was more than 20 µM. Take `NS(=O)(=O)c1cccc(CNc2nc(-c3ccccn3)nc3scc(-c4ccccc4)c23)c1` [Example 1.12, 3-[(5-Phenyl-2-pyridin-2-yl-thieno[2,3-d]pyrimidin-4-ylamino)-methyl]-benzenesulfonamide]: the IC50 lay within 1 to 20 µM. The value for `Cn1ncc(CNc2nc(-c3ccccn3)nc3scc(-c4ccccc4)c23)c1N` [Example 1.34, (5-Amino-1-methyl-1H-pyrazol-4-ylmethyl)-(5-phenyl-2-pyridin-2-yl-thieno[2,3-d]pyrimidin-4-yl)-amine] was 1 to 20 µM; that for `c1ccc(-c2csc3nc(-c4ccccn4)nc(NCc4ccco4)c23)cc1` [Example 1.35, Furan-2-ylmethyl-(5-phenyl-2-pyridin-2-yl-thieno[2,3-d]pyrimidin-4-yl)-amine] was 1 to 20 µM; that for `CN(c1nc(-c2ccccn2)nc2scc(-c3ccccc3)c12)C1CCCC1` [Example 1.36, Cyclopentyl-methyl-(5-phenyl-2-pyridin-2-yl-thieno[2,3-d]pyrimidin-4-yl)-amine] was more than 20 µM. On to `Cc1csc2nc(-c3ccccn3)nc(NCc3ccc(S(N)(=O)=O)s3)c12` [Example 1.37, 5-(((5-Methyl-2-(pyridin-2-yl)thieno[2,3-d]pyrimidin-4-yl)amino)methyl)thiophene-2-sulfonamide], for which the IC50 was more than 20 µM.

In the case of `Cn1ncc2c(NCc3ccc(S(N)(=O)=O)cc3)nc(-c3ccccc3)nc21` [Example 2, 4-(((1-Methyl-6-phenyl-1H-pyrazolo[3,4-d]pyrimidin-4-yl)amino)methyl)-benzenesulfonamide], the IC50 fell in the range of 1 to 20 µM. For the compound `Cn1ncc2c(NCc3ccccc3)nc(-c3ccccn3)nc21` [Example 2.9, N-Benzyl-1-methyl-6-(pyridin-2-yl)-1H-pyrazolo[3,4-d]pyrimidin-4-amine], the IC50 was more than 20 µM. As for `COc1ccc(CNc2nc(-c3ccccn3)nc3c2cnn3C)cc1` [Example 2.11, N-(4-Methoxybenzyl)-1-methyl-6-(pyridin-2-yl)-1H-pyrazolo[3,4-d]pyrimidin-4-amine], the IC50 is more than 20 µM. `Cn1ncc2c(NCc3cccc(F)c3)nc(-c3ccccn3)nc21` [Example 2.12, N-(3-Fluorobenzyl)-1-methyl-6-(pyridin-2-yl)-1H-pyrazolo[3,4-d]pyrimidin-4-amine] came in with an IC50 of more than 20 µM. In the case of `Cn1ncc2c(NCc3ccc(Cl)cc3)nc(-c3ccccn3)nc21` [Example 2.13, N-(4-Chlorobenzyl)-1-methyl-6-(pyridin-2-yl)-1H-pyrazolo[3,4-d]pyrimidin-4-amine], the IC50 was more than 20 µM. Regarding `Cn1ncc2c(NCc3ccc(S(N)(=O)=O)cc3)nc(-c3cccnc3)nc21` [Example 2.15, 4-(((1-Methyl-6-(pyridin-3-yl)-1H-pyrazolo[3,4-d]pyrimidin-4-yl)amino)methyl)-benzenesulfonamide], the IC50 is 1 to 20 µM. To `Cn1ncc2c(NCc3ccc(S(N)(=O)=O)cc3)nc(-c3ccncc3)nc21` [Example 2.16, 4-(((1-Methyl-6-(pyridin-4-yl)-1H-pyrazolo[3,4-d]pyrimidin-4-yl)amino)methyl)-benzenesulfonamide] belongs more than 20 µM; to `Cn1ncc2c(NCc3ccncc3)nc(-c3ccccn3)nc21` [Example 2.17, 1-Methyl-6-(pyridin-2-yl)-N-(pyridin-4-ylmethyl)-1H-pyrazolo[3,4-d]pyrimidin-4-amine], 1 to 20 µM. The value for `Cn1ncc2c(NCc3cccnc3)nc(-c3ccccn3)nc21` [Example 2.18, 1-Methyl-6-(pyridin-2-yl)-N-(pyridin-3-ylmethyl)-1H-pyrazolo[3,4-d]pyrimidin-4-amine] was more than 20 µM; that for `Cn1ncc2c(NCc3ccccn3)nc(-c3ccccn3)nc21` [Example 2.19, 1-Methyl-6-(pyridin-2-yl)-N-(pyridin-2-ylmethyl)-1H-pyrazolo[3,4-d]pyrimidin-4-amine] was more than 20 µM; that for `Cn1ncc2c(NCc3cccs3)nc(-c3ccccn3)nc21` [Example 2.21, 1-Methyl-6-(pyridin-2-yl)-N-(thiophen-2-ylmethyl)-1H-pyrazolo[3,4-d]pyrimidin-4-amine] was more than 20 µM.

In the case of `Cc1ccc(CNc2nc(-c3ccccn3)nc3c2cnn3C)o1` [Example 2.22, 1-Methyl-N-((5-methylfuran-2-yl)methyl)-6-(pyridin-2-yl)-1H-pyrazolo[3,4-d]pyrimidin-4-amine], the IC50 is more than 20 µM. The value for `Cn1ncc2c(NCc3ccco3)nc(-c3ccccn3)nc21` [Example 2.23, N-(Furan-2-ylmethyl)-1-methyl-6-(pyridin-2-yl)-1H-pyrazolo[3,4-d]pyrimidin-4-amine] was more than 20 µM; that for `Cc1ccncc1/C=C/CNC1CCN(c2ncnc3c(Br)csc23)CC1` [Example 3.62, (E)-1-(7-Bromothieno[3,2-d]pyrimidin-4-yl)-N-(3-(4-methylpyridin-3-yl)allyl)piperidin-4-amine] was less than 0.1 µM. The value for `Cc1ccncc1CCCNC1CCN(c2ncnc3ccsc23)CC1` [Example 3.63, N-(3-(4-Methylpyridin-3-yl)propyl)-1-(thieno[3,2-d]pyrimidin-4-yl)piperidin-4-amine] was 1 to 20 µM; that for `O=C(CCc1ccc(F)cc1)NC1CCN(c2ncnc3c(Cl)csc23)CC1` [Example 3.64, N-(1-(7-Chlorothieno[3,2-d]pyrimidin-4-yl)piperidin-4-yl)-3-(4-fluorophenyl)propanamide] was 1 to 20 µM; that for `Cc1csc2c(N3CCC(NCCCc4ccncc4)CC3)nc(Cl)nc12` [Example 3.65, 1-(2-Chloro-7-methylthieno[3,2-d]pyrimidin-4-yl)-N-(3-(pyridin-4-yl)propyl)piperidin-4-amine] was 1 to 20 µM. The value for `COc1nc(N2CCC(NCCCc3ccncc3)CC2)c2scc(C)c2n1` [Example 3.66, 1-(2-Methoxy-7-methylthieno[3,2-d]pyrimidin-4-yl)-N-(3-(pyridin-4-yl)propyl)piperidin-4-amine] was 1 to 20 µM; that for `Cc1ccncc1CCCNC1CCN(c2nc(Cl)nc3c(C)csc23)CC1` [Example 3.68, 1-(2-Chloro-7-methylthieno[3,2-d]pyrimidin-4-yl)-N-(3-(4-methylpyridin-3-yl)propyl)piperidin-4-amine] was 1 to 20 µM. Turning to `CNc1nc(N2CCC(NCCCc3cnccc3C)CC2)c2scc(C)c2n1` [Example 3.69, N,7-Dimethyl-4-(4-((3-(4-methylpyridin-3-yl)propyl)amino)piperidin-1-yl)thieno[3,2-d]pyrimidin-2-amine], the IC50 was 1 to 20 µM. `COc1nc(N2CCC(NCCCc3cnccc3C)CC2)c2scc(C)c2n1` [Example 3.70, 1-(2-Methoxy-7-methylthieno[3,2-d]pyrimidin-4-yl)-N-(3-(4-methylpyridin-3-yl)propyl)piperidin-4-amine] registered an IC50 of 0.1 to 1 µM. To `Cc1ccncc1CCCNC1CCN(c2nc(NCCO)nc3c(C)csc23)CC1` [Example 3.71, 2-((7-Methyl-4-(4-((3-(4-methylpyridin-3-yl)propyl)amino)piperidin-1-yl)thieno[3,2-d]pyrimidin-2-yl)amino)ethanol] belongs 0.1 to 1 µM; to `Cc1csc2c(N3CCC(NC/C=C/c4ccncc4)CC3)ncnc12` [Example 3.76, (E)-1-(7-methylthieno[3,2-d]pyrimidin-4-yl)-N-(3-(pyridin-4-yl)allyl)piperidin-4-amine], 0.1 to 1 µM.
